Test results reported in patent US10183015B2, “Heterocyclic compounds and methods of use” (Medivation Technologies LLC, priority 2015, dated 2019).
Several values for one entry are separate records, joined by “and”; a condition that tells them apart may be missing. Equal entries are not always repeated.

Legend:
[1] = system: 60% high fat Paigen diet induced NASH mouse model; experiment: Short-term Paigen-diet NASH mouse model: liver weight and liver lipid content; format: in vivo
Procedure: To investigate whether Compound #37 prevents the development of pathology associated with NASH and steatosis in an acute exploratory disease model, a study was conducted using a diet-induced acute liver steatosis model in mice. […]
After acclimation, 8-week old male C57Bl/6J mice (Charles River) weighing about 25 g were randomized in 4 groups according their body weight and treated once daily around noon by oral gavage with vehicle, […] (2-hydroxypropyl)-β-cyclodextrin (HP-β-CD) (n=10); Group 2: Compound #37, 5 mg/kg (n=10) Group 3: Compound #37, 20 mg/kg (n=10) Group 4: Compound #37, 40 mg/kg (n=10). During the treatment period, body weight and food intake (measured over 24h) were measured 3 times per week and once a week, respectively. During the acclimation, all mice were fed a standard diet (Special Diets Services RM1 (E), product no. 801492) and tap water ad libitum. […]
After 21 days of treatment, mice were 4-hour fasted (9 am to 1 pm). One hour after the last dosing (noon), blood was collected by retro-orbital bleeding (maximal volume on EDTA) under isoflurane anesthesia to measure plasma triglycerides, total cholesterol, non-esterified fatty acid, ALT and AST. Mice were then sacrificed by cervical dislocation, and livers were harvested and weighed. Liver samples from the same lobe were dissected, frozen, and analyzed as described below.
At the end of the treatment period, livers were weighed, and their lipid content was analyzed. The liver weights were unchanged by the treatment.

[2] = system: SREBP1C; experiment: DIN mouse model: hepatic SREBP1C gene expression; format: in vivo; design: key to 2^DDct: expression relative to vehicle group, normalized to 18S; settings: 20 mg/kg group; for 18S: Gene Expression: SREBP1C table, 18S reference; for 2^DDct / DDct / Dct / SREBP1C: Gene Expression: SREBP1C
Procedure: (§1) Gene expression analysis. Hepatic expression levels of genes involved in lipid metabolism (FAS, SREBP1, ACC1, SCD1), cholesterol metabolism (HMG-CoAR, LDLR), SREBP proteolysis (SCAP, INSIG1), ER stress (PERK), oxidative stress (NRF2), inflammation (MCP-1), and fibrosis (collagen 1α1) were quantified by RTqPCR. Expression level was normalized to 18S gene expression and relative expression to vehicle group was calculated with the […] method.
(§2) Male C57Bl/6J mice (8 weeks old) were housed in enriched ventilated cages (31×12.5×12.7 cm) throughout the experimental phase. Animals' cages litters were changed at least once a week. Animal were housed 5 per cage on inverted 12-hour light cycle (at 09:00 am lights off), 22±2° C. and 55±10% relative humidity. The acclimation period was 20 days. During the acclimation period, all mice were fed a standard diet (RM1 (E) 801492, SDS) and tap water ad libitum. After the acclimation period, mice were fed with the DIN diet (60% fat, cholesterol enriched) and fructose-enriched tap water ad libitum until the end of the experiment.
(§3) At 6 weeks of diet, mice were 4-hour fasted (09:00 am to 1:00 pm) and blood (150 μl/EDTA) was collected at 01:00 pm by retro-orbital bleeding under isoflurane anesthesia. Mice were then allocated in 2 homogenous groups (n=12/group) according to their plasma levels of ALT (average levels: 685U/L), AST (average levels: 627U/L) and HOMA-IR index (average value: 4.7), into 2 homogenous groups (see values at day 0 in Tables 15A and 15B ALT/AST and Tables 16A and 16B for HOMA-IR). Mice were then treated once daily by oral gavage with vehicle (Group 1) or Compound #37 at 20 mg/kg (Group 2) for 70 days.
(§4) Hepatic expression levels of genes involved in lipid (FAS, SREBP1, ACC1, SCD1), cholesterol metabolism (HMG-CoAR, LDLR), in SREBP proteolysis (SCAP, INSIG1), in ER stress (PERK), oxidative stress (NRF2), and inflammation (MCP-1) were not changed. However, expression of collagen 1α1, involved in liver fibrosis, was reduced by 66% in mice treated with Compound #37 (p<0.05 vs. vehicle).

[3] = system: ob/ob mice; experiment: ob/ob mice: liver triglycerides, fatty acids, total cholesterol; format: in vivo, mouse; settings: 8 weeks; for liver fatty acids / liver total cholesterol / liver triglycerides: ob/ob mice
Procedure: Groups of mice were either untreated (group 1) or treated for 8 weeks with vehicle (group 2), or with Compound #37 at 5 mg/kg (group 3), 10 mg/kg (group 4), or 20 mg/kg (group 5). Treatment was daily by oral gavage in vehicle (20% HPβCD). Values are presented as mean±standard error of the mean (sem). A t test was performed to compare the untreated group and the vehicle group. Then Compound #37-treated groups were compared to the vehicle-treated group with a 1-way ANOVA+Dunnett's post-test. […] For each test, a p<0.05 was considered significant. Of note, animal #39, group 1 was excluded from the statistical analysis, due to low values for all parameters measured. Some other values were considered as out-liners and excluded from the statistical analysis when the value was far below the mean minus 2 SD. Excluded values are marked with an asterisk in Tables 21-23.

[4] = system: FAS; experiment: DIN mouse model: hepatic FAS gene expression; format: in vivo; design: key to 2^DDct: expression relative to vehicle group, normalized to 18S; settings: 20 mg/kg group; for 18S: Gene Expression: FAS table, 18S reference; for 2^DDct / DDct / Dct / FAS: Gene Expression: FAS
Procedure: as §1, §2, §3, §4

[5] = 5 mg/kg p.o. daily, 21 days of diet and treatment, group mean
[6] = 5 mg/kg p.o. daily, 21 days of diet and treatment, individual animals
[7] = 20 mg/kg p.o. daily, 21 days of diet and treatment, group mean
[8] = 20 mg/kg p.o. daily, 21 days of diet and treatment, individual animals
[9] = 40 mg/kg p.o. (stopped after 4 administrations), 9 days of diet, group mean
[10] = 40 mg/kg p.o. (stopped after 4 administrations), 9 days of diet, individual animals
[11] = 5 mg/kg daily oral gavage, group mean
[12] = 5 mg/kg daily oral gavage, individual animal values, 5 mg/kg
[13] = 10 mg/kg daily oral gavage, group mean
[14] = 10 mg/kg daily oral gavage, individual animal values, 10 mg/kg
[15] = 20 mg/kg daily oral gavage, group mean
[16] = 20 mg/kg daily oral gavage, individual animal values (* = excluded from statistical analysis), 20 mg/kg

## CC(C)Cc1cc(-c2nc(-c3ccc(NS(=O)(=O)C(F)(F)F)cc3Cl)cs2)ccn1 [Compound 37, N-(3-chloro-4-(2-(2-isobutylpyridin-4-yl)thiazol-4-yl)phenyl)-1,1,1-trifluoromethanesulfonamide]
[1]; [5]
  liver cholesterol (μg/mg tissue): 34.4 μg/mg tissue
  liver fatty acids (nmol/mg tissue): 57.6 nmol/mg tissue
  liver triglycerides (μg/mg tissue): 6.2 μg/mg tissue
[1]; [6]
  liver cholesterol (μg/mg tissue): 42.24 μg/mg tissue and 37.91 μg/mg tissue and 31.39 μg/mg tissue and 23.12 μg/mg tissue and 31.47 μg/mg tissue and 25.31 μg/mg tissue and 29.76 μg/mg tissue and 37.34 μg/mg tissue and 49.15 μg/mg tissue and 36.57 μg/mg tissue
  liver fatty acids (nmol/mg tissue): 65.4 nmol/mg tissue and 66.6 nmol/mg tissue and 53.5 nmol/mg tissue and 47.5 nmol/mg tissue and 55.2 nmol/mg tissue (2×) and 35.5 nmol/mg tissue and 55.0 nmol/mg tissue and 77.4 nmol/mg tissue and 65.2 nmol/mg tissue
  liver triglycerides (μg/mg tissue): 6.91 μg/mg tissue and 7.18 μg/mg tissue and 4.64 μg/mg tissue and 9.62 μg/mg tissue and 6.13 μg/mg tissue (2×) and 5.69 μg/mg tissue and 5.49 μg/mg tissue and 3.62 μg/mg tissue and 6.16 μg/mg tissue
[1]; [7]
  liver cholesterol (μg/mg tissue): 39.1 μg/mg tissue
  liver fatty acids (nmol/mg tissue): 63.3 nmol/mg tissue
  liver triglycerides (μg/mg tissue): 5.4 μg/mg tissue
[1]; [8]
  liver cholesterol (μg/mg tissue): 38.32 μg/mg tissue and 42.07 μg/mg tissue and 39.38 μg/mg tissue and 32.61 μg/mg tissue and 40.02 μg/mg tissue and 42.44 μg/mg tissue
  liver fatty acids (nmol/mg tissue): 63.4 nmol/mg tissue and 66.5 nmol/mg tissue and 65.0 nmol/mg tissue and 50.0 nmol/mg tissue and 62.7 nmol/mg tissue and 72.5 nmol/mg tissue
  liver triglycerides (μg/mg tissue): 6.75 μg/mg tissue and 2.65 μg/mg tissue and 2.83 μg/mg tissue and 3.72 μg/mg tissue and 9.84 μg/mg tissue and 6.82 μg/mg tissue
[1]; [9]
  liver cholesterol (μg/mg tissue): 20.3 μg/mg tissue
  liver fatty acids (nmol/mg tissue): 43.0 nmol/mg tissue
  liver triglycerides (μg/mg tissue): 11.7 μg/mg tissue
[1]; [10]
  liver cholesterol (μg/mg tissue): 22.40 μg/mg tissue and 20.18 μg/mg tissue and 20.88 μg/mg tissue and 17.60 μg/mg tissue
  liver fatty acids (nmol/mg tissue): 43.6 nmol/mg tissue and 43.1 nmol/mg tissue and 43.5 nmol/mg tissue and 41.8 nmol/mg tissue
  liver triglycerides (μg/mg tissue): 9.11 μg/mg tissue and 11.15 μg/mg tissue and 14.68 μg/mg tissue and 11.77 μg/mg tissue
[2]; individual animal, 20 mg/kg
  18S: 12.55 (2×) and 12.84 and 12.43 and 12.35 (2×) and 12.59 and 11.73 and 12.51 and 11.5 and 11.55
[2]; mean, n 11
  18S: 12.3
  2^DDct: 0.96
  DDct: 0.28
  Dct: 13.6
  SREBP1C: 25.9
[2]; individual animal
  2^DDct: 1.30 and 1.21 and 0.41 and 0.49 and 0.69 and 1.10 and 0.99 and 1.37 and 0.36 and 0.47 and 2.13
  DDct: −0.38 and −0.27 and 1.30 and 1.04 and 0.54 and −0.14 and 0.01 and −0.45 and 1.46 and 1.10 and −1.09
  Dct: 12.98 and 13.09 and 14.66 and 14.4 and 13.9 and 13.22 and 13.37 and 12.91 and 14.82 and 14.46 and 12.27
  SREBP1C: 25.53 and 25.64 and 27.5 and 26.83 and 26.25 and 25.81 and 25.1 and 25.42 and 26.32 and 26.01 and 24.62
[3]
  hepatic cholesterol concentrations: no effect
[3]; [11]
  liver fatty acids: 35.9 nmol/mg liver
  liver total cholesterol: 12.5 μg/mg liver
  liver triglycerides: 80.3 μg/mg liver
[3]; [12]
  liver fatty acids: 21.39 nmol/mg liver and 38.65 nmol/mg liver and 43.56 nmol/mg liver and 43.68 nmol/mg liver and 42.30 nmol/mg liver and 26.81 nmol/mg liver and 31.47 nmol/mg liver and 34.22 nmol/mg liver and 40.04 nmol/mg liver and 36.50 nmol/mg liver
  liver total cholesterol: 9.57 μg/mg liver and 13.21 μg/mg liver and 16.08 μg/mg liver and 15.08 μg/mg liver and 14.41 μg/mg liver and 9.18 μg/mg liver and 10.40 μg/mg liver and 12.19 μg/mg liver and 13.20 μg/mg liver and 13.39 μg/mg liver
  liver triglycerides: 32.54 μg/mg liver and 89.34 μg/mg liver and 118.92 μg/mg liver and 123.01 μg/mg liver and 111.66 μg/mg liver and 54.15 μg/mg liver and 66.99 μg/mg liver and 69.20 μg/mg liver and 107.70 μg/mg liver and 29.81 μg/mg liver
[3]; [13]
  liver fatty acids: 47.00 nmol/mg liver
  liver total cholesterol: 14.47 μg/mg liver
  liver triglycerides: 115.44 μg/mg liver
[3]; [14]
  liver fatty acids: 29.78 nmol/mg liver and 49.10 nmol/mg liver and 42.91 nmol/mg liver and 39.50 nmol/mg liver and 43.38 nmol/mg liver and 48.06 nmol/mg liver and 58.06 nmol/mg liver and 46.42 nmol/mg liver and 53.47 nmol/mg liver and 59.33 nmol/mg liver
  liver total cholesterol: 11.02 μg/mg liver and 14.95 μg/mg liver and 15.25 μg/mg liver and 11.27 μg/mg liver and 14.07 μg/mg liver and 16.04 μg/mg liver and 17.20 μg/mg liver and 13.65 μg/mg liver and 14.90 μg/mg liver and 17.30 μg/mg liver
  liver triglycerides: 71.81 μg/mg liver and 110.46 μg/mg liver and 96.59 μg/mg liver and 67.76 μg/mg liver and 106.16 μg/mg liver and 153.12 μg/mg liver and 128.22 μg/mg liver and 157.22 μg/mg liver and 124.56 μg/mg liver and 138.07 μg/mg liver
[3]; [15]
  liver fatty acids: 42.4 nmol/mg liver
  liver total cholesterol: 13.8 μg/mg liver
  liver triglycerides: 106.3 μg/mg liver
[3]; [16]
  liver fatty acids: 46.82 nmol/mg liver and 11.67* nmol/mg liver and 43.19 nmol/mg liver and 56.93 nmol/mg liver and 36.64 nmol/mg liver and 43.21 nmol/mg liver and 40.58 nmol/mg liver and 33.97 nmol/mg liver and 38.27 nmol/mg liver and 41.87 nmol/mg liver
  liver total cholesterol: 16.75 μg/mg liver and 7.14* μg/mg liver and 13.56 μg/mg liver and 17.52 μg/mg liver and 11.98 μg/mg liver and 14.67 μg/mg liver and 14.39 μg/mg liver and 13.53 μg/mg liver and 12.83 μg/mg liver and 9.07 μg/mg liver
  liver triglycerides: 115.27 μg/mg liver and 10.45* μg/mg liver and 99.74 μg/mg liver and 160.82 μg/mg liver and 71.59 μg/mg liver and 95.60 μg/mg liver and 114.62 μg/mg liver and 92.80 μg/mg liver and 91.36 μg/mg liver and 115.09 μg/mg liver
[4]; individual animal, 20 mg/kg
  18S: 12.55 (2×) and 12.84 and 12.43 and 12.35 (2×) and 12.59 and 11.73 and 12.51 and 11.5 and 11.55
  2^DDct: 2.46 and 1.29 and 0.37 and 1.47 and 0.36 and 1.30 and 0.81 and 0.64 and 0.33 and 0.21 and 1.77
  DDct: −1.30 and −0.37 and 1.45 and −0.56 and 1.48 and −0.38 and 0.31 and 0.64 and 1.62 and 2.28 and −0.82
  Dct: 7.2 and 8.13 and 9.95 and 7.94 and 9.98 and 8.12 and 8.81 and 9.14 and 10.12 and 10.78 and 7.68
  FAS: 19.75 and 20.68 and 22.79 and 20.37 and 22.33 (2×) and 20.71 and 20.54 and 21.65 and 21.62 and 20.03
[4]; mean, n 11
  18S: 12.3
  2^DDct: 1
  DDct: 0.40
  Dct: 8.9
  FAS: 21.2
